Literature values, collected in patent US7771760B2, “Oils of capsaicinoids and methods of making and using the same” (NeurogesX, Inc., priority 2005, dated 2010).

COc1cc(CNC(=O)CCCC/C=C/C(C)C)ccc1O [capsaicin]
solubility in organic solvents (benzene, alcohol, ketone, ether and paraffin oils): soluble
solubility in cold water (cold water): sparingly soluble
